# In patent US9751869B2, “LXR modulators” (BRISTOL-MYERS SQUIBB COMPANY, priority 2013, dated 2017):
# Molecular target: T1, LXRβ (Homo sapiens, UniProt P55055)
# T1 construct: Co-transfection expression plasmids, comprising full-length LXRα (pCMX-h LXRα or LXRβ (pCMX-hLXRβ)); expressed in transfected cells; host or cells: CV-1 African green monkey kidney cells, transient transfection with pCMX-hLXRβ
# T1 sequence (P55055 1-460): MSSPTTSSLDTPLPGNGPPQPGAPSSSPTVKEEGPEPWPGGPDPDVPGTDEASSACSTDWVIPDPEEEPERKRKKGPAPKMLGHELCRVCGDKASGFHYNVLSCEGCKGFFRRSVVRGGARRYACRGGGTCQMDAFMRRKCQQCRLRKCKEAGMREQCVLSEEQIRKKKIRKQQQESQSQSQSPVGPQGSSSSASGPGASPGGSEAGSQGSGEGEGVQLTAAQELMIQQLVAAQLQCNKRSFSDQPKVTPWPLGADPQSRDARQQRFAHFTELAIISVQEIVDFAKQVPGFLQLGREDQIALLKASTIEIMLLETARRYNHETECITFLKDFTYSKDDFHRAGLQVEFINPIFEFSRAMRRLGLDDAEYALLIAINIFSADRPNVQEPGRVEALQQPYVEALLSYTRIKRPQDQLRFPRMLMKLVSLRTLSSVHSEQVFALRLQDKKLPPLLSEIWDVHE
# T1 sequence (P19793 1-462 partner): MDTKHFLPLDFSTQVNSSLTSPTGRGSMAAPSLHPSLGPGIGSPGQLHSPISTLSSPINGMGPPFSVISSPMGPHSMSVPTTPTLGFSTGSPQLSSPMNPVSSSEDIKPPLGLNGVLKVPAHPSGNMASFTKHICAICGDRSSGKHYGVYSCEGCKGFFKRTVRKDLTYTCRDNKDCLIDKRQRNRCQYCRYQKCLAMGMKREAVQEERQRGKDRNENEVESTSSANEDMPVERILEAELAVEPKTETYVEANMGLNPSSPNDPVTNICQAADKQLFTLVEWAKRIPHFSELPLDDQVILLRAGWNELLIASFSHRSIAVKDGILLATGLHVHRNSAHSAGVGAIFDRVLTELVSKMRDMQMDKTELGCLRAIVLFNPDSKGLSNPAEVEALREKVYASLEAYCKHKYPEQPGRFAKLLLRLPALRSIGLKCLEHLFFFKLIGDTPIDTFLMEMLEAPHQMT
# Test: LXR/LXRE co-transfection assay (luciferase reporter) in CV-1 cells, LXRβ
# Type: cell-based
# Conditions: for EC50: CV-1 cells transfected with pCMX-hLXRβ and LXREx1-Tk-Luciferase, 20 hours incubation, read-out: LXRbeta agonism EC50; for Emax: CV-1 cells, relative to maximum response of high control N-(3-((4-fluorophenyl)-(naphthalene-2-sulfonyl)amino)propyl)-2,2-dimethylpropionamide, read-out: LXRbeta % EFFICACY
# From the text: To measure the ability of compounds to activate or inhibit the transcriptional activity of LXR in a cell based assay, the co-transfection assay was used. It has been shown that LXR functions as a heterodimer with RXR. For the co-transfection assay, expression plasmids for LXRα and LXRβ are introduced separately via transient transfection into mammalian cells along with a luciferase reporter plasmid that contains one copy of a DNA sequence that is bound by LXR-RXR heterodimers (LXRE; Willy, P. et. al. 1995). LXRs heterodimerize with the endogenous RXR. Treatment of transfected cells with an LXR agonist increases the transcriptional activity of LXR, which is measured by an increase in luciferase activity.
# Co-transfection expression plasmids, comprising full-length LXRα (pCMX-h LXRα or LXRβ (pCMX-hLXRβ), reporter plasmid (LXREx1-Tk-Luciferase), and control (pCMX-Galactosidase expression vector) (Willey et al. Genes & Development 9 1033-1045 (1995)).
# CV-1 cells were prepared 24 hours prior to the experiment by plating them into T-175 flasks or 500 cm^2 dishes in order to achieve 70-80% confluency on the day of the transfection. The number of cells to be transfected was determined by the number of plates to be screened. Each well of a 384 well plate requires 1.5×10^4 cells. DNA Transfection Reagent was prepared by mixing the required plasmid DNAs with a cationic lipid transfection reagent Transit 2020 (Mirus Bio) for CV1 by following the instructions provided with the reagents. Optimal DNA amounts were determined empirically per cell line and size of vessel to be transfected. For each T175 cm^2 flask a total of 44.4 ug for CV1 of DNA, 133 ul Transit2020 and 4.5 ml DMEM for CV1 was mixed and added. Cells were then incubated at least 5 hours at 37° C. to prepare screening cells.
# Assay plates were prepared by dispensing 5 μL of compound per well of a 384 well plate to achieve final compound concentration of 10 μM and no more than 0.5% DMSO. Media was removed from the screening cells, the cells trypsinized, harvested cells by centrifugation, counted, and plated at a density of approximately 1.5×10^4 cells in the 384 well assay plate prepared above in a volume of about 95 uL. Assay plates containing both compounds and screening cells (100 μL in total volume) were incubated for 20 hours at 37° C.
# After incubation with compounds, media was removed from the cells and luciferase assay reagent (30 μL/well) added. After ˜2 minutes at ambient temperature, the assay plates were read on a luminometer (PE Biosystems Northstar reader with on-board injectors, or Envision (Perkin Elmer) or equivalent).
# The LXR/LXRE co-transfection assay can be used to establish the EC50/IC50 values for potency and percent activity or inhibition for efficacy. Efficacy defines the activity of a compound relative to a high control ((N-(3-((4-fluorophenyl)-(naphthalene-2-sulfonyl)amino)propyl)-2,2-dimethylpropionamide)) or a low control (DMSO/vehicle). The dose response curves are generated from a 10 point curve with concentrations differing by ½ LOG units. Each point represents the average of 4 wells of data from a 384 well plate.
# The data from this assay is fitted to the following equation, from which the EC50 value may be solved: Y=Bottom+(Top−Bottom)/(1+10^((log EC50-X)*HillSlope)).
# The EC50/IC50 is therefore defined as the concentration at which an agonist or antagonist elicits a response that is halfway between the Top (maximum) and Bottom (baseline) values. The EC50/IC50 values represented are the averages of at least 2 and normally 3 independent experiments. The determination of the relative efficacy or % control for an agonist is by comparison to the maximum response achieved by ((N-(3-((4-fluorophenyl)-(naphthalene-2-sulfonyl)-amino)propyl)-2,2-dimethylpropionamide) that is measured individually in each dose response experiment.
# Table 1 lists LXRβ EC50 values and % efficacy measurements in the cotransfection assay for examples of this invention.
EC50 [nM],Emax [%],Structure (SMILES)
119,33,"Cc1nc(-c2ccc(OC(F)(F)F)cc2)c(-c2cc(-c3cccc(S(C)(=O)=O)c3)ccc2-n2ccc(C(=O)NCC(F)(F)F)n2)o1 [Example 371, 1-(3-(2-methyl-4-(4-(trifluoromethoxy)phenyl)oxazol-5-yl)-3′-(methylsulfonyl)-[1,1′-biphenyl]-4-yl)-N-(2,2,2-trifluoroethyl)-1H-pyrazole-3-carboxamide]"
13,60,"Cc1nc(-c2ccc(Cl)cc2Cl)c(-c2cc(-c3cc(F)c(CO)c(S(C)(=O)=O)c3)ccc2-n2cc(Cl)c(C(F)(F)F)n2)o1 [Example 424, (4′-(4-chloro-3-(trifluoromethyl)-1H-pyrazol-1-yl)-3′-(4-(2,4-dichlorophenyl)-2-methyloxazol-5-yl)-3-fluoro-5-(methylsulfonyl)-[1,1′-biphenyl]-4-yl)methanol]"
226,99,"Cc1nc(-c2ccc(OC(F)(F)F)cc2)c(-c2cc(-c3cccc(S(C)(=O)=O)c3)ccc2-n2ccc(CC#N)n2)o1 [Example 369, 2-(1-(3-(2-methyl-4-(4-(trifluoromethoxy)phenyl)oxazol-5-yl)-3′-(methylsulfonyl)-[1,1′-biphenyl]-4-yl)-1H-pyrazol-3-yl)acetonitrile]"
176,31,"Cc1nc(-c2ccc(OC(F)(F)F)cc2)c(-c2cc(-c3cccc(S(C)(=O)=O)c3)ccc2-n2cc(Cl)c(C(C)(C)O)n2)o1 [Example 441, 2-(4-chloro-1-(3-(2-methyl-4-(4-(trifluoromethoxy)phenyl)oxazol-5-yl)-3′-(methylsulfonyl)-[1,1′-biphenyl]-4-yl)-1H-pyrazol-3-yl) propan-2-ol]"
70,48,"Cc1nc(-c2ccc(OC(F)(F)F)cc2)c(-c2cc(-c3cc(F)c(CO)c(S(C)(=O)=O)c3)ccc2-n2ccc(C3CC3)n2)o1 [Example 315, (4′-(3-cyclopropyl-1H-pyrazol-1-yl)-3-fluoro-3′-(2-methyl-4-(4-(trifluoromethoxy)phenyl)oxazol-5-yl)-5-(methylsulfonyl)-[1,1′-biphenyl]-4-yl)methanol]"
316,14,"Cc1nc(-c2ccc3c(c2)OC(F)(F)O3)c(-c2cc(-c3cccc(S(C)(=O)=O)c3)ccc2-n2ccc(C(N)=O)n2)o1 [Example 359, 1-(3-(4-(2,2-difluorobenzo[d][1,3]dioxol-5-yl)-2-methyloxazol-5-yl)-3′-(methylsulfonyl)-[1,1′-biphenyl]-4-yl)-1H-pyrazole-3-carboxamide]"
348,60,"Cc1nc(-c2ccc(OC(F)(F)F)cc2)c(-c2cc(-c3cccc(C(C)(C)C#N)c3)ccc2-n2cc(Cl)c(C(F)(F)F)n2)o1 [Example 429, 2-(4′-(4-chloro-3-(trifluoromethyl)-1H-pyrazol-1-yl)-3′-(2-methyl-4-(4-(trifluoromethoxy)phenyl)oxazol-5-yl)-[1,1′-biphenyl]-3-yl)-2-methylpropanenitrile]"
948,48,"Cc1nc(-c2ccc(OC(F)(F)F)cc2)c(-c2cc(-c3cc(F)c(CO)c(S(C)(=O)=O)c3)ccc2-n2nc(C(F)(F)F)cc2C2CC2)o1 [Example 323, (4′-(5-cyclopropyl-3-(trifluoromethyl)-1H-pyrazol-1-yl)-3-fluoro-3′-(2-methyl-4-(4-(trifluoromethoxy)phenyl)oxazol-5-yl)-5-(methylsulfonyl)biphenyl-4-yl)methanol]"
158,18,"Cc1nc(-c2ccc3c(c2)OC(F)(F)O3)c(-c2cc(-c3cc(F)c(CO)c(S(C)(=O)=O)c3)ccc2-c2cc(-c3cnco3)nn2C)o1 [Example 57, (3′-(4-(2,2-difluorobenzo[d][1,3]dioxol-5-yl)-2-methyloxazol-5-yl)-3-fluoro-4′-(1-methyl-3-(oxazol-5-yl)-1H-pyrazol-5-yl)-5-(methylsulfonyl)-[1,1′-biphenyl]-4-yl)methanol]"
58,76,"CC(C)c1nc(-c2ccc(OC(F)(F)F)cc2)c(-c2cc(-c3cc(F)c(CO)c(S(C)(=O)=O)c3)ccc2-n2ccc(C(F)(F)F)n2)o1 [Example 341, (3-fluoro-3′-(2-isopropyl-4-(4-(trifluoromethoxy)phenyl)oxazol-5-yl)-5-(methylsulfonyl)-4′-(3-(trifluoromethyl)-1H-pyrazol-1-yl)biphenyl-4-yl)methanol]"
12,71,"Cc1nc(-c2cc(-c3ccc(CO)c(S(C)(=O)=O)c3)ccc2-n2nc(C(F)(F)F)cc2C)c(-c2ccc(OC(F)F)cc2)o1 [Example 392, (3′-(5-(4-(difluoromethoxy)phenyl)-2-methyloxazol-4-yl)-4′-(5-methyl-3-(trifluoromethyl)-1H-pyrazol-1-yl)-3-(methylsulfonyl)biphenyl-4-yl)methanol]"
2520,30,"Cc1nc(-c2ccc3c(c2)OC(F)(F)O3)c(-c2cc(-c3cc(F)c(CO)c(S(C)(=O)=O)c3)ccc2-c2cc(C(F)(F)c3nnc[nH]3)nn2C)o1 [Example 52, (4′-(3-(difluoro(4H-1,2,4-triazol-3-yl)methyl)-1-methyl-1H-pyrazol-5-yl)-3′-(4-(2,2-difluorobenzo[d][1,3]dioxol-5-yl)-2-methyloxazol-5-yl)-3-fluoro-5-(methylsulfonyl)biphenyl-4-yl)methanol]"
135,45,"CNC(=O)C(F)(F)c1cc(-c2ccc(-c3cc(F)c(CO)c(S(C)(=O)=O)c3)cc2-c2nc(C)oc2-c2ccc3c(c2)OC(F)(F)O3)n(C)n1 [Example 91, 2-(5-(3-(5-(2,2-difluorobenzo[d][1,3]dioxol-5-yl)-2-methyloxazol-4-yl)-3′-fluoro-4′-(hydroxymethyl)-5′-(methylsulfonyl)biphenyl-4-yl)-1-methyl-1H-pyrazol-3-yl)-2,2-difluoro-N-methylacetamide]"
